Experimental data published in patent publication US7030081B2 (S.I.S.S.A.- Scuola Internazionale Superiore di Studi …, priority 2000, dated 2006).
Several values for one entry are separate records, joined by “and”; a condition that tells them apart may be missing. Equal values may be shown once. Entries after “also recorded” stand apart in the source; their conditions may differ. No end group written: not given here.

Key:
[1] = target: T1, muscle-type nicotinic receptors (Mus musculus, UniProt P02716+P04756+P09690); experiment: Patch-clamp recording of nicotinic currents in cultured muscle cells (myotubes, I28); format: cell-based
T1 construct: nicotinic currents recorded from cultured muscle cells (myotubes, I28); endogenous in cells; host or cells: I28 myotubes
T1 sequence (P04756 21-457): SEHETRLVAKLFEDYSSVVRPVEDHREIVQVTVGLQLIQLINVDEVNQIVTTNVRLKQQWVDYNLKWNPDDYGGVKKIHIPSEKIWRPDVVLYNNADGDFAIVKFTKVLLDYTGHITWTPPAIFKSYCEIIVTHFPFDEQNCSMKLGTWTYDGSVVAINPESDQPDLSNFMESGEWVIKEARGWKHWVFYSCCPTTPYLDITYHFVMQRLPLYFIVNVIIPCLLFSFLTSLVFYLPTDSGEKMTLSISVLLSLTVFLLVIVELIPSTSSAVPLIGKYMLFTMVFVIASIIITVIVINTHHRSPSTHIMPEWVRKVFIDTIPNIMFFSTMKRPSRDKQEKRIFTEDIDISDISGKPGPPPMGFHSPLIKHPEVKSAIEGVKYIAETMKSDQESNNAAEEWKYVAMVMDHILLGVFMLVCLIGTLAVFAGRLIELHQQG
T1 sequence (P09690 24-501): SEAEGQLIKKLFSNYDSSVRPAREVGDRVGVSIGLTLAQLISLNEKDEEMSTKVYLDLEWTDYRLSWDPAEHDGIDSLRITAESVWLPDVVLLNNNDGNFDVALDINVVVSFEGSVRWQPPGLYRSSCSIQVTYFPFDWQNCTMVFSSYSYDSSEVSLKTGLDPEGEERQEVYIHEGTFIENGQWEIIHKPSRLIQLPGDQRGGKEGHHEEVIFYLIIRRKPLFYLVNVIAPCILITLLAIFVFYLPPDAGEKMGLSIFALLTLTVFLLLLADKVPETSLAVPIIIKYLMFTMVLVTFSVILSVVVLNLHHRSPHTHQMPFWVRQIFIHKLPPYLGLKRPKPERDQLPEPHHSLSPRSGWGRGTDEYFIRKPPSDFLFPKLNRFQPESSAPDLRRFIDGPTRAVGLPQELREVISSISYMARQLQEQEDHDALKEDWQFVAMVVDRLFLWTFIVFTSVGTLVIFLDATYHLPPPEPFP
T1 sequence (P02716 25-520): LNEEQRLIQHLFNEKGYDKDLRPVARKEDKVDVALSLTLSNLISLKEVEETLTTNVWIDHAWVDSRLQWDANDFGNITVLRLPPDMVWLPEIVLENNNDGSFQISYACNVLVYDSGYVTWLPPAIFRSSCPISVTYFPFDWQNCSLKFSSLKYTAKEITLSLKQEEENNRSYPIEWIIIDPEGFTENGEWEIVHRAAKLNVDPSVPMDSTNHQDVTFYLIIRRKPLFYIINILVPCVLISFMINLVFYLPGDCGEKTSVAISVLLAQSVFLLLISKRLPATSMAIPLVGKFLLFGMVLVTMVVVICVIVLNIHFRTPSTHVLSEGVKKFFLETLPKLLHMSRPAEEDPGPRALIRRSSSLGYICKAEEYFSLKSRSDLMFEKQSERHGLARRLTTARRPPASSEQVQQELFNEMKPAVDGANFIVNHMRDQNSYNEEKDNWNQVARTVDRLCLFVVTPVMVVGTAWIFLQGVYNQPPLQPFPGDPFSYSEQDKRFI
T1 sequence (P04760 23-519 partner): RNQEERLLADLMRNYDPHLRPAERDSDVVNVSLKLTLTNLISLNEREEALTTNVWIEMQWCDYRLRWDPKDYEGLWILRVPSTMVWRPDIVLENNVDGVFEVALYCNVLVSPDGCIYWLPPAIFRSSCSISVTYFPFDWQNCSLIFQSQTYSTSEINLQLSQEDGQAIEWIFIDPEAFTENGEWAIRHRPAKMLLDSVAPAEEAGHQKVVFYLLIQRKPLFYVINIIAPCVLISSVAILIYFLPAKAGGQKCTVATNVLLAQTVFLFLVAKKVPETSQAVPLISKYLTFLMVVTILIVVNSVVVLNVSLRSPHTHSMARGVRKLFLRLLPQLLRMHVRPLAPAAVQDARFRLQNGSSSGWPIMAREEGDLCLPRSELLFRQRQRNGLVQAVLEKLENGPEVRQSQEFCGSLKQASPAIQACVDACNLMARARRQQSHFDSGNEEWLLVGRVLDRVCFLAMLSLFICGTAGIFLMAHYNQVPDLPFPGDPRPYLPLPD
Description: A set of experiments was carried out using […] which represent myotubes and therefore contain muscle-type nicotinic receptors. For this purpose the cells were prepared according to method by Irintchev et al. (1997).
(§1) Dishes containing cultured cells (used from 0 to 3 days after their preparation) were placed on an inverted Nikon DIAPHOT™ microscope and continuously superfused (5–10 ml/min) with control saline containing (mM): NaCl 135, KCl 5, MgCl2 1, CaCl2 2, glucose 15, HEPES 10 (pH 7.4 with addition of […]; 285 mOsm osmolarity). The patch pipettes, obtained from glass capillary tubes (1.5 mm o.d.) had 5–6 MΩ resistance when filled with intracellular solution containing: (mM) CsCl 120; HEPES 20; MgCl2 1; Mg2ATP3 3, BAPTA 10 (240 mOsm). The pH of the intracellular solution was adjusted to 7.2 with CsOH. Unless otherwise specified, all recordings were carried out at −70 mV membrane potential. After obtaining whole-cell configuration (Hamill et al. 1981), each cell was stabilized for […] period, after which membrane ionic currents, mediated by nAChR activation, were recorded, filtered at 1 kHz, and stored in a PC for subsequent analysis with the pCLAMP 6.04 program (Axon Instruments Inc., Foster City, Calif.).
To this end we studied whether this peptide could affect nicotinic currents recorded from cultured muscle cells (myotubes, I28). These cells were kept at −60 mV potential by the patch electrode.

[2] = test system: nAChRs of rat chromaffin cells; experiment: Patch-clamp recording of nicotine-induced currents in cultured rat chromaffin cells; format: cell-based; conditions: for effect on nicotine dose response curve: 1 μM peptide or 0.5 μM physostigmine; for depression (reduction) of the response to nicotine: 5 μM physostigmine, 0.1 mM nicotine
Description: Cultures of rat chromaffin cells were prepared according to the Brandt method (Brandt et al., 1976, Giniatullin et al., 1999, Khirough et al., 1997, 1998). 25–35 day old rats were anaesthetized by increasing CO2 levels and then their adrenal glands were removed. The medullary part was separated from the cortical portion of the gland in buffer solution (pH 7.2) containing (mM): NaCl 137, KCl 3, Na2HPO4 0.7, HEPES 25, glucose 10 and 350 U ml^−1 of penicillin and streptomycin.
Cells were successively dissociated from fragments of medullary tissue at 37° C. over about 60 min, by passing them through a Pasteur pipette at 15 min intervals, and by enzymatic treatment with collagenase A and DNAse I (0.5 U ml^−1 and 10 μgml^−1). The cell containing suspension was then centrifuged at 700 rpm for 5 min and washed twice in HEPES buffered medium. The cells, after re-suspension in DMEM culture medium (Dulbecco's modified Eagle's medium) with addition of 10% FCS (calf fetal serum), were plated on poly-lysine (5 mg/ml)-pretreated Petri dishes and cultured at 37° C. for 1–2 days in 5% CO2 containing atmosphere.
as §1
nAChR agonists were administered to single cells by a pressure system from a micropipette containing a relatively concentrated solution and placed at […] distance from the recorded cell. […] This method allows very rapid administration of a chemical substance with a few ms latency to observe a cell response. For application of antagonists, test compounds and control solution we used a rapid superfusion system (Bio-logic, France) consisting of an array of glass capillary tubes (0.8 mm o.d.) which, through rapid rotation, generate solution flow onto the treated cell. In this case the exchange time between two solutions is about 50 ms.

nAChRs = conditions: Giniatullin et al.; cited from earlier work
[3] = 1 μM peptide, nicotine 0.1 mM, 20 ms pulse

SCNTAT [CGRP 1-6]
effect on muscle-type nicotinic receptor responses (in words) [1]: did not modify the muscle-type nicotinic receptor responses
amplitude of nicotine responses as % of the controls ([1]; 1 μM CGRP 1-6 pre-applied for 2 minutes, nicotine 100 μM, −60 mV): 101±2%
potentiation of nicotine current at threshold ([2]; 0.1 μM peptide, nicotine 20 ms, 0.1 mM): 105±7%
nicotine currents (fraction of control) on concurrent application of CGRP 1-6 and CGRP 1-7 ([2]; 1 μM concentration of both): 99±4%
application time after which enhancement is observed ([2]; 1 μM peptide): ≤ 5 s
wash time for reversal of enhancement ([2]; 1 μM peptide): about 1 min
effect on nicotine dose response curve [2]: shifted to the left in a parallel fashion without modification of the maximum response
effect on maximal currents (saturating nicotine pulse) ([2]; 1 μM peptide, 200 ms nicotine pulse): absent; also recorded: not modified
enhancement of nicotine induced currents [2, 3]: 31% and 31±7% and 21±4%
maximum value of potentiation of nicotine current ([2]; 50 μM peptide, nicotine 20 ms, 0.1 mM): 156±6%
enhancement with combined application of CGRP 1-6 and physostigmine ([2]; CGRP 1-6 1 μM + physostigmine 0.5 μM): 37±6%
washout time for current to return to the initial value ([2]; FIG. 3C): 45 to 60 s
enhancement with cytisine as agonist ([2]; cytisine 20 ms, 0.1 mM): enhancing effect was exerted also when nAChRs were activated by cytisine
CGRP 1-6 enhancing action threshold value ([2]; nicotine 0.1 mM, 20 ms, 0.05–100 μM tested): 0.1 µM
nicotine currents as % of the control with physostigmine plus CGRP 1-6 ([2]; physostigmine 5 μM + CGRP 1-6 1 μM): 79±1%
direct action in the absence of agonist ([2]; resting membrane conductance, baseline current): not associated with any direct action
dependence of enhancing action on membrane potential ([2]; −40, −70 and −100 mV): independent from the membrane potential

CNC(=O)Oc1ccc2c(c1)[C@]1(C)CCN(C)[C@@H]1N2C [physostigmine, reference compound]
depression (reduction) of the response to nicotine ([2]; 20 ms): 48±5%
depression (reduction) of the response to nicotine ([2]; 20 ms, listed as phystigmine): 77±1%

Ser-Cys-Asn-Thr-Ala (SCNTA; listed as Homo sapiens) [CGRP 1-5]
enhancement of nicotine induced currents ([2]; 10 μM peptide): 26±4%

SCNTATA [CGRP 1-7A, Cys7 replaced with Ala]
wash time for reversal of enhancement ([2]; 1 μM peptide): about 1 min
effect on nicotine dose response curve [2]: significantly shifted to left without increase in the maximum response
enhancement of nicotine induced currents [2, 3]: 17±4%
enhancement of nicotine induced currents ([2]; 1 μM peptide, nicotine 0.1 mM, 20 ms pulse, listed as 1-7A): 18%
enhancement of nicotine induced currents ([2]; 1 μM peptide, nicotine 0.1 mM, 20 ms pulse, listed as CGRP 1-7 A): about 18%

SCNTATC (cysteine pairing not given here) [CGRP 1-7, reference compound]
action on nAChRs reported earlier (in words) (nAChRs): rapidly developing, competitive antagonism readily reversible on wash
inhibition of nicotine currents ([2]; 1 μM peptide): 42%

CN1CCCC1c1cccnc1 (stereo not drawn) [Nicotine, nicotine, reference compound]
EC50 [1]: 100 µM

Ser-Cys-Asn-Thr (SCNT; listed as Homo sapiens) [CGRP 1-4]
enhancement of nicotine induced currents [2, 3]: 8±1%
action of fragment on nicotinic currents (in words) ([2]; FIG. 5B): modest enhancing effect
